# Laboratory results: US20150351401A1 (priority 2012, published 2015)
# Test system: Pyricularia oryzae
# Experiment: not given
# Type: cell-based
# Settings: comparison CM1, 7 days after inoculation
row,Structure (SMILES),Growth (%) at 8 ppm Pyrior [%]
1,"OC(Cc1ccccc1Cl)(Cn1ncnc1S)C1(Cl)CC1 (stereo not drawn) [drawing 129, reference compound]",41
2,OC(Cc1ccc(Oc2ccc(Cl)cc2)cc1Cl)(Cn1ncnc1S)C1(Cl)CC1 (stereo not drawn) [I-5],0
3,OC(Cc1ccc(-c2ccc(Cl)cc2)cc1Cl)(Cn1ncnc1S)C1(Cl)CC1 (stereo not drawn) [I-6],0

# Same assay, conditions: comparison CM2, 7 days after inoculation
row,Structure (SMILES),Growth (%) at 8 ppm Pyrior [%]
1,"OC(Cc1ccc(Oc2ccc(Cl)cc2)cc1Cl)(Cn1cncn1)C1CC1 (stereo not drawn) [I-7, 1-[2-Chloro-4-(4-chlorophenoxyl)phenyl]-2-cyclopropyl-3-(1,2,4-triazol-1-yl)propan-2-ol]",0
2,OC(Cc1ccc(Oc2ccc(Cl)cc2)cc1Cl)(Cn1ncnc1S)C1(Cl)CC1 (stereo not drawn) [I-5],0
3,"OC(Cc1ccccc1Cl)(Cn1ncnc1S)C1(Cl)CC1 (stereo not drawn) [drawing 135, reference compound]",41

# Test system: Puccinia recondita
# Experiment: CG1 Preventative control of brown rust on wheat caused by Puccinia recondita (Puccrt P1), greenhouse
# Type: in vivo
# Settings: 75 ppm spray, wheat seedlings, inoculated next day; % diseased leaf area; untreated control 90
# Method: The Spray Solutions were Prepared in Several Steps:
# The stock solution were prepared: a mixture of acetone and/or dimethylsulfoxide and the wetting agent/emulsifier Wettol, which is based on ethoxylated alkylphenoles, in a relation (volume) solvent-emulsifier of 99 to 1 was added to the initial weight of the compound to give a total of 5 ml. Water was then added to total volume of 100 ml. This stock solution was diluted with the described solvent-emulsifier-water mixture to the given concentration.
# CG1 Preventative Control of Brown Rust on Wheat Caused by Puccinia recondita (Puccrt P1)
# The first two developed leaves of pot-grown wheat seedling were sprayed to run-off with an aqueous suspension, containing the concentration of active ingredient or their mixture as described below. The next day the plants were inoculated with spores of Puccinia recondita. To ensure the success the artificial inoculation, the plants were transferred to a humid chamber without light and a relative humidity of 95 to 99% and 20 to 24° C. for 24 h. Then the trial plants were cultivated for 6 days in a greenhouse chamber at 20-24° C. and a relative humidity between 65 and 70%. The extent of fungal attack on the leaves was visually assessed as % diseased leaf area.
row,Structure (SMILES),Disease (%) at 75 ppm Puccrt P1 [%]
1,OC(Cc1ccccc1Cl)(Cn1cncn1)C1(Cl)CC1 (stereo not drawn) [reference compound],50
2,OC(Cc1ccc(Oc2ccc(Cl)cc2)cc1Cl)(Cn1cncn1)C1(Cl)CC1 (stereo not drawn) [I-4],20
3,"OC(Cc1ccc(-c2ccc(Cl)cc2)cc1Cl)(Cn1cncn1)C1(Cl)CC1 (stereo not drawn) [I-3, 1-[2-chloro-4-(4-chlorophenyl)phenyl]-2-(1-chlorocyclopropyl)-3-(1,2,4-triazol-1-yl)propan-2-ol]",20
